# Measurements: patent US8835466B2, “Synthesis and uses of pyroglutamic acid derivatives” (Prodimed, S.A., priority 2006, dated 2014)
# Columns and labels:
# [1] = tested on: Ehrlich tumour cells (murine mammary adenocarcinoma); assay: Effect of isomers and BLAS on in vivo tumour growth, Ehrlich tumours (Example 9); set-up: species or system Balb/c mice; conditions: for Tumour surface, overall values (Mean) / Tumour surface, overall values (Median) / Tumour volume, overall values (Mean) / Tumour volume, overall values (Median): 260 ng/mouse i.p. days 6, 7 and 14
# Excerpt: This assay was made in order to compare the effect of each stereoisomer on in vivo tumour growth in mice with the effect of the mixture of all of them challenged with Ehlrich tumours. The same products, equipment, reagents, doses, vehicle and route of administration as in example 8 were used.
# Mice were inoculated with Ehrlich tumour cells. It was described as a murine mammary adenocarcinoma. Ehrlich tumour is a murine mammary carcinoma originally raised in an outbred mouse, and therefore it belongs to the so-called non-specific tumours (Subiza J L, Viñuela J E, Rodriguez R, Gil J, Figueredo M A, de la Concha. E G. Development of splenic natural suppressor (NS) cells in Ehrlich tumor bearing mice. Int J Cancer, 44:307 315; 1989). It may grow across histocompatibility barriers and therefore is not mouse strain specific (Carry P J, Prescott D M, Ogilvie G K. Resistance to Ehrlich ascites tumor in a strain of dystrophic mice. Cancer Res., 39:2139-2140; 1979).
# Ehrlich cells were maintained in vitro by serial passages every 3-4 days. Cultures were performed with RPMI medium medium (RPMI, 10% foetal calf serum, 2 mM L-glutamine, non essential aminoacids, 1 mM sodium pyruvate, 20 mM HEPES, 80 μg/mL gentamycin; all of them were purchased from Sigma, St. Louis, Mo., USA) by seeding 5×10^6 cells onto 75 cm^2 culture flasks. Tumour cells collected from 48 hour cultures were used as source of cells for the studies described below.
# Tumours were established by subcutaneous inoculation in the right hind flank. Mice (Balb/c) were inoculated with 0.2 mL containing 2×10^5 viable Ehrlich cells. The day of subcutaneous inoculation will be considered Day 0 of the test.
# (§1) Mice were observed daily and the tumour size recorded twice a week. This was carried out by measuring two perpendicular diameters (L/W) with a calliper. These measures were used to obtain both tumour surface and volume: Tumour surface=L×W(mm^2) Tumour volume=L×W^2×½(mm^3)
# (§2) Results were expressed as single values and/or as the mean±SD or median from each experimental group.
# A case-control study was performed with treated and control mice in order to determine whether differences between BLAS or each diferent stereoisomer and administration of placebo were present. […] The U-test of Mann Withney was chosen for being one of the better known non-parametrical tests, anyway, results for this test are equivalent both to those of Wilcoxon's sum of ranges and Kruskal-Wallis two-groups test.
# [2] = tested on: Renca cells (renal cell carcinoma); assay: Effect of isomers on in vivo tumour growth in mice challenged with Renca cells (Example 7); set-up: species or system Balb/c mice
# Excerpt: This assay was made in order to check the effect of each stereoisomer on in vivo tumour growth in mice challenged with Renca cells. Their effect was compared with placebo. The stereoisomers assayed were:
# Renca is a renal cell carcinoma originated in Balb/c mouse strain, and therefore syngeneic in mice with Balb/c genetic background [Melder R J et al., Cancer Immunol. Immunother., 2005, 54:535-547; Felluga B et al., 1969, J. Natl. Cancer Inst. 43:319-333]. Renca is considered a moderate immunogenic tumour and used as suitable model for testing immunointervention approaches [Salup R R, et al., 1992, The Journal of Urology, 147:1120-1123].
# Renca cells (CLS, Eppelheim, Germany) were maintained in vitro by serial passages every 3-4 days. Cultures were performed with RPMI medium medium (RPMI, 10% foetal calf serum, 2 mM L-glutamine, non essential amino acids, 1 mM sodium pyruvate, 20 mM HEPES, 80 μg/mL gentamycin; all of them were purchased from Sigma, St. Louis, Mo., USA) by seeding 5×10^6 cells onto 75 cm^2 culture flasks. Tumour cells collected from 48 hour cultures upon trypsinization (Sigma, St. Louis, Mo., USA) were used as source of Renca cells for the studies described below.
# Each isomer was tested at the dose levels of 260 ng administered on days 6, 7 and 14 after tumour inoculation.
# The treatments were given by intraperitoneal route (i.p.). The volume inoculated was 0.2 mL/animal. This route was chosen because it is the one described in the original method [Pérez S, et al., 2003, Clinical Cancer Research. 9:5776-5785].
# Tumours were established by subcutaneous inoculation in the right hind flank. Mice (Balb/c) were inoculated with 0.2 mL containing 10^5 viable Renca cells. The day of subcutaneous inoculation will be considered Day 0 of the test.
# as §1, §2
# A case-control study was performed with treated and control mice in order to determine whether differences between isomers and administration of placebo were present. […] The U-test of Mann Withney was chosen for being one of the better known non-parametrical tests, anyway, results for this test are equivalent both to those of Wilcoxon's sum of ranges and Kruskal-Wallis two-groups test.
# Due to the high dispersion of data, outlayers (animals beyond percentile 25 or above percentile 75 for tumour surface at day 25) were excluded of the study.
# [3] = day 13 after tumour inoculation
# [4] = day 16 after tumour inoculation
# [5] = day 20 after tumour inoculation
# [6] = day 23 after tumour inoculation
# [7] = day 29 after tumour inoculation
# [8] = day 31 after tumour inoculation
# [9] = day 35 after tumour inoculation
# [10] = day 38 after tumour inoculation
# [11] = day 0 after tumour inoculation, 260 ng/mouse i.p. days 6, 7, 14
# [12] = day 11 after tumour inoculation, 260 ng/mouse i.p. days 6, 7, 14
# [13] = day 14 after tumour inoculation, 260 ng/mouse i.p. days 6, 7, 14
structure (smiles),measurement,setting,value
"Br.N[C@]1(C[n+]2ccccc2)C[C@@H](C(=O)O)NC1=O.[Br-] (single isomer, unassigned; isomer 3) [isomer 3, 3S,5S-1-(3-Amino-5-carboxy-2-oxopyrrolidin-3-ylmethyl)pyridinium bromide hidrobromide]","Inhibition of the in vivo growth of Ehrlich tumour cells, in words","[1]; 260 ng i.p. days 6, 7 and 14",inhibit the in vivo growth
same,"Inhibitory effect on Ehrlich tumour growth compared among treatments, in words","[1]; 260 ng i.p. days 6, 7 and 14",highest inhibitory effect
same,"Tumour surface, overall values (Mean)",[1]; day 0 after tumour inoculation,0 mm^2
same,"Tumour surface, overall values (Median)",[1]; day 0 after tumour inoculation,0 mm^2
same,"Tumour volume, overall values (Mean)",[1]; day 0 after tumour inoculation,0 mm^3
same,"Tumour volume, overall values (Median)",[1]; day 0 after tumour inoculation,0 mm^3
same,"Tumour surface, overall values (Mean)",[1]; day 8 after tumour inoculation,3.62 mm^2
same,"Tumour surface, overall values (Median)",[1]; day 8 after tumour inoculation,0 mm^2
same,"Tumour volume, overall values (Mean)",[1]; day 8 after tumour inoculation,6 mm^3
same,"Tumour volume, overall values (Median)",[1]; day 8 after tumour inoculation,0 mm^3
same,"Tumour surface, overall values (Mean)",[1]; [3],10.94 mm^2
same,"Tumour surface, overall values (Median)",[1]; [3],9 mm^2
same,"Tumour volume, overall values (Mean)",[1]; [3],23.53 mm^3
same,"Tumour volume, overall values (Median)",[1]; [3],13.5 mm^3
same,"Tumour surface, overall values (Mean)",[1]; [4],16.5 mm^2
same,"Tumour surface, overall values (Median)",[1]; [4],16 mm^2
same,"Tumour volume, overall values (Mean)",[1]; [4],37.12 mm^3
same,"Tumour volume, overall values (Median)",[1]; [4],32 mm^3
same,"Tumour surface, overall values (Mean)",[1]; [5],24.12 mm^2
same,"Tumour surface, overall values (Median)",[1]; [5],20 mm^2
same,"Tumour volume, overall values (Mean)",[1]; [5],65.12 mm^3
same,"Tumour volume, overall values (Median)",[1]; [5],40 mm^3
same,"Tumour surface, overall values (Mean)",[1]; [6],32.25 mm^2
same,"Tumour surface, overall values (Median)",[1]; [6],25 mm^2
same,"Tumour volume, overall values (Mean)",[1]; [6],100.44 mm^3
same,"Tumour volume, overall values (Median)",[1]; [6],62.5 mm^3
same,"Tumour surface, overall values (Mean)",[1]; [7],42.94 mm^2
same,"Tumour surface, overall values (Median)",[1]; [7],27.5 mm^2
same,"Tumour volume, overall values (Mean)",[1]; [7],156.34 mm^3
same,"Tumour volume, overall values (Median)",[1]; [7],68.75 mm^3
same,"Tumour surface, overall values (Mean)",[1]; [8],53.37 mm^2
same,"Tumour surface, overall values (Median)",[1]; [8],36 mm^2
same,"Tumour volume, overall values (Mean)",[1]; [8],213.31 mm^3
same,"Tumour volume, overall values (Median)",[1]; [8],100.5 mm^3
same,"Tumour surface, overall values (Mean)",[1]; [9],66 mm^2
same,"Tumour surface, overall values (Median)",[1]; [9],43 mm^2
same,"Tumour volume, overall values (Mean)",[1]; [9],293.87 mm^3
same,"Tumour volume, overall values (Median)",[1]; [9],135.5 mm^3
same,"Tumour surface, overall values (Mean)",[1]; [10],79.37 mm^2
same,"Tumour surface, overall values (Median)",[1]; [10],49.5 mm^2
same,"Tumour volume, overall values (Mean)",[1]; [10],387.69 mm^3
same,"Tumour volume, overall values (Median)",[1]; [10],164.25 mm^3
same,"Differences in Ehrlich tumour growth rate vs. placebo, statistical significance p (Mann-Whitney U test)","[1]; either in surface or volume, all days scored after the day 8th",< 0.05
same,"Differences in Ehrlich tumour growth rate BLAS vs. isomer 3, statistical significance p (Mann-Whitney U test)","[1]; either in surface or volume, days 13th, 16th, 20th and 23th",< 0.05
same,"Inhibition of the in vivo growth of the renal cell carcinoma (Renca), in words","[2]; 260 ng i.p. days 6, 7, 14",inhibit the in vivo growth
same,"Tumour surface, overall values (Mean)",[2]; [11],0 mm^2
same,"Tumour surface, overall values (Median)",[2]; [11],0 mm^2
same,"Tumour volume, overall values (Mean)",[2]; [11],0 mm^3
same,"Tumour volume, overall values (Median)",[2]; [11],0 mm^3
same,"Tumour surface, overall values (Mean)",[2]; [12],0.3 mm^2
same,"Tumour surface, overall values (Median)",[2]; [12],0 mm^2
same,"Tumour volume, overall values (Median)",[2]; [12],0 mm^3
same,"Tumour surface, overall values (Median)",[2]; [13],4 mm^2
same,"Tumour volume, overall values (Median)",[2]; [13],4 mm^3
same,"Differences in Renca tumour growth rate vs. placebo, statistical significance p (Mann-Whitney U test)","[2]; either in surface or volume, days 18th and 25th of tumour development",< 0.05
